Several values for one entry are separate records, joined by “and”; a condition that tells them apart may be missing. Equal values may be shown once.
Tests used:
Assay in all cases: PamChip tyrosine kinase microarray
Assay type in all cases: biochemical
Conditions in all cases: 0.1 µM, HL60 lysate
[1] = target: T1, Syk (P43405) (Homo sapiens, UniProt P43405)
T1 construct: purchased PamGene (PamChip PTK array, Upstream Kinase Analysis)
Procedure, shortened: (§1)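 HL60 (AML) cell lysate was spiked with compound at 0.001, 0.01, 0.1, 1, 10 and 50 µM, or 2% v/v DMSO as control, then profiled in technical replicates on a tyrosine kinase peptide array of 196 phosphosites. Kinase activity was inferred from peptide-set changes using an upstream kinase tool.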

[2] = target: T2, FAK1 (Q05397) (Homo sapiens, UniProt Q05397)
T2 construct: purchased PamGene (PamChip PTK array, Upstream Kinase Analysis)
Procedure, shortened: as §1

[3] = target: T3, Met (P08581) (Homo sapiens, UniProt P08581)
T3 construct: purchased PamGene (PamChip PTK array, Upstream Kinase Analysis)
Procedure, shortened: as §1

[4] = target: T4, Fyn (P06241) (Homo sapiens, UniProt P06241)
T4 construct: purchased PamGene (PamChip PTK array, Upstream Kinase Analysis)
Procedure, shortened: as §1

[5] = target: T5, Tyk2 (P29597) (Homo sapiens, UniProt P29597)
T5 construct: purchased PamGene (PamChip PTK array, Upstream Kinase Analysis)
Procedure, shortened: as §1

[6] = target: T6, EphA5 (P54756) (Homo sapiens, UniProt P54756)
T6 construct: purchased PamGene (PamChip PTK array, Upstream Kinase Analysis)
Procedure, shortened: as §1

[7] = target: T7, Lyn (P07948) (Homo sapiens, UniProt P07948)
T7 construct: purchased PamGene (PamChip PTK array, Upstream Kinase Analysis)
Procedure, shortened: as §1

[8] = target: T8, InSR (P06213) (Homo sapiens, UniProt P06213)
T8 construct: purchased PamGene (PamChip PTK array, Upstream Kinase Analysis)
Procedure, shortened: as §1

[9] = target: T9, Tyro3/Sky (Q06418) (Homo sapiens, UniProt Q06418)
T9 construct: purchased PamGene (PamChip PTK array, Upstream Kinase Analysis)
T9 sequence (Q06418 41-890): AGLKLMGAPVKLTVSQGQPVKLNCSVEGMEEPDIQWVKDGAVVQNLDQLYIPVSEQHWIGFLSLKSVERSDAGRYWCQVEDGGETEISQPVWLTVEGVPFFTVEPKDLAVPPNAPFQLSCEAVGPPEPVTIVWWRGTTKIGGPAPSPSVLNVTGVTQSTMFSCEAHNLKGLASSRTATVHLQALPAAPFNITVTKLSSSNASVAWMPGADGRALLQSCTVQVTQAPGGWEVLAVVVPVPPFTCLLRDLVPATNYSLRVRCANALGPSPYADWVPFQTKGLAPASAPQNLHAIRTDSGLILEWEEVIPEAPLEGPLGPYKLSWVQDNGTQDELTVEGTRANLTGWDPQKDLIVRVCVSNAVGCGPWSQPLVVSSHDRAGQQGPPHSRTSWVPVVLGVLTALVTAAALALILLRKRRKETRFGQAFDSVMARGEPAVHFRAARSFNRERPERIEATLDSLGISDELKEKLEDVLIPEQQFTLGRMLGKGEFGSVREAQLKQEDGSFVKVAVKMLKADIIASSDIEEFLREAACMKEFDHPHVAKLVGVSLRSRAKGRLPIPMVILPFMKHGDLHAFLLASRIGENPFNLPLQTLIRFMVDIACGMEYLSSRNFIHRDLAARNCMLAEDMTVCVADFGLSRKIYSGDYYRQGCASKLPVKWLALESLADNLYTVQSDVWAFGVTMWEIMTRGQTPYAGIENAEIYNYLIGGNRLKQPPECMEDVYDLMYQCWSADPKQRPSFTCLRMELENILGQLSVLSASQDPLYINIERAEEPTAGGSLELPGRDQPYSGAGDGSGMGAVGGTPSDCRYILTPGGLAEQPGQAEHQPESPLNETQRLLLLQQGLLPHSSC
Procedure, shortened: as §1

[10] = target: T10, KDR (P35968) (Homo sapiens, UniProt P35968)
T10 construct: purchased PamGene (PamChip PTK array, Upstream Kinase Analysis)
Procedure, shortened: as §1

T3 sequence (P08581 25-1390): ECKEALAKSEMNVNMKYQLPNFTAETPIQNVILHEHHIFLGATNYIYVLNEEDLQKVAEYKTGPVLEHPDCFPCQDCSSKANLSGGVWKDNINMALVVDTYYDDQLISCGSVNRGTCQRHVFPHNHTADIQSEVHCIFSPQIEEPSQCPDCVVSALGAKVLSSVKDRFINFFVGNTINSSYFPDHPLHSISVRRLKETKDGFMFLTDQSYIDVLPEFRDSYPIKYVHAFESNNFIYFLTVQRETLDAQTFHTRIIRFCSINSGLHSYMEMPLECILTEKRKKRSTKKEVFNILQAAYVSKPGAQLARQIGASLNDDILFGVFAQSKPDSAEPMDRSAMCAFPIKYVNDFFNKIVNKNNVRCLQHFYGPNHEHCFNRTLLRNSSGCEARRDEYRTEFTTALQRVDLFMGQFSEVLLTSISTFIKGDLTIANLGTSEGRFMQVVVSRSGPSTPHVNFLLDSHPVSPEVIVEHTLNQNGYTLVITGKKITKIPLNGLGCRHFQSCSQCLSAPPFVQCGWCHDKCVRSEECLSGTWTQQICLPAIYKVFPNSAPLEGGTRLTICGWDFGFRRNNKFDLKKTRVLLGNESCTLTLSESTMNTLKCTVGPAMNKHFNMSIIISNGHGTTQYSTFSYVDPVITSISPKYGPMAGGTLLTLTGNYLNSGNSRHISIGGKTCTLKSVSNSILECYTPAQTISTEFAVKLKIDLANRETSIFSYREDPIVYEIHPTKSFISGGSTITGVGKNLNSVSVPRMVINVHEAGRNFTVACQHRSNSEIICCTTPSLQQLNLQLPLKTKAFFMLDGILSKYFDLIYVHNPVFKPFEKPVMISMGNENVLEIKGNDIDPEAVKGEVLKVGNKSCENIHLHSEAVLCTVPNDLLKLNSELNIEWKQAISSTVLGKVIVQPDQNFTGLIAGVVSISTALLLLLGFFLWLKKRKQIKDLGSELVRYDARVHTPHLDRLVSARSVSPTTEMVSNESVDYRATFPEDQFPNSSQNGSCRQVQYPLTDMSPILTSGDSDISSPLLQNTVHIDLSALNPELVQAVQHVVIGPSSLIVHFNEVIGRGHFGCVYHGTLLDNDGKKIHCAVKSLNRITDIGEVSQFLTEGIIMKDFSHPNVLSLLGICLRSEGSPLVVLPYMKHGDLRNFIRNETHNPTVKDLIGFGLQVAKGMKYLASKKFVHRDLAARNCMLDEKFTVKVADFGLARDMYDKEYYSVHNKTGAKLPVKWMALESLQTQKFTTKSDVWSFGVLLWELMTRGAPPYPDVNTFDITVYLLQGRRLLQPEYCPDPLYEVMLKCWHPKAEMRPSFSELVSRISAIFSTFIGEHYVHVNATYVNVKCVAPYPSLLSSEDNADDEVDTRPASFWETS
T10 sequence (P35968 20-1356): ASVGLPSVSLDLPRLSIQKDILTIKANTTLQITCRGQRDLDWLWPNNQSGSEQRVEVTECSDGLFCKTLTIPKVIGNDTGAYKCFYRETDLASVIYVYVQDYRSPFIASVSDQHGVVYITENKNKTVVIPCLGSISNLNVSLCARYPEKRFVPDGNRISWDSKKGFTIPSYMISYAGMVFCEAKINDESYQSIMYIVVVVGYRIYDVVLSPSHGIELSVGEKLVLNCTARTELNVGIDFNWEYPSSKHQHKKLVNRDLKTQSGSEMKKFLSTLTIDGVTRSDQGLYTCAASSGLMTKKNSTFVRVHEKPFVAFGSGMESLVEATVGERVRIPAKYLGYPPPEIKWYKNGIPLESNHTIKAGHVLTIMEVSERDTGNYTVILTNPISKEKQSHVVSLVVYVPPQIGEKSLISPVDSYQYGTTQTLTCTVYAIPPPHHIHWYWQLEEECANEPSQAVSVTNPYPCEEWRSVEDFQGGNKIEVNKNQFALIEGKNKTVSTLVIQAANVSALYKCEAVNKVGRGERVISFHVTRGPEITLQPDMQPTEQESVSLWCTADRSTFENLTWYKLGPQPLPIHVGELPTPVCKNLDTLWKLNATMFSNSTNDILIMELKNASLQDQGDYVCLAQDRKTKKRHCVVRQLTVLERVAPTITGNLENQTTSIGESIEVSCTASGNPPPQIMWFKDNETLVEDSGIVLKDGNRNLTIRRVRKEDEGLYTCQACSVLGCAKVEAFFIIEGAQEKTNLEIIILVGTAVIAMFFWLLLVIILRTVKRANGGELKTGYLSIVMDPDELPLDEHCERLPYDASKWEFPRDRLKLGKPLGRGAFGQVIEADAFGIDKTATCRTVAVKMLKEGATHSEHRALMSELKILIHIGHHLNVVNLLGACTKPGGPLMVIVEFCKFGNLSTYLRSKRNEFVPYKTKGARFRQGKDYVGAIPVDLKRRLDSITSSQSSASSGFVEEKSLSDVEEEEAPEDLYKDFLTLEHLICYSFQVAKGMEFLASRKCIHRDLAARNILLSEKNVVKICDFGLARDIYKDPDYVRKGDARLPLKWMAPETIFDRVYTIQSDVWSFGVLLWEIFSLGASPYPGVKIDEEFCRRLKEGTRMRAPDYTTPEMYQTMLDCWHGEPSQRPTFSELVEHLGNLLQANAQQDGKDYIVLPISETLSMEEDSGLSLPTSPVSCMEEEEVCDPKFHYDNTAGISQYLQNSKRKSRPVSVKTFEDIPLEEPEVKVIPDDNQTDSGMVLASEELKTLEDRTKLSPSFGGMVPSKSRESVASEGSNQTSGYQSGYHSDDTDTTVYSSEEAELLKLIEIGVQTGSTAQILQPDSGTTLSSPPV
T7 sequence (P07948 whole entry): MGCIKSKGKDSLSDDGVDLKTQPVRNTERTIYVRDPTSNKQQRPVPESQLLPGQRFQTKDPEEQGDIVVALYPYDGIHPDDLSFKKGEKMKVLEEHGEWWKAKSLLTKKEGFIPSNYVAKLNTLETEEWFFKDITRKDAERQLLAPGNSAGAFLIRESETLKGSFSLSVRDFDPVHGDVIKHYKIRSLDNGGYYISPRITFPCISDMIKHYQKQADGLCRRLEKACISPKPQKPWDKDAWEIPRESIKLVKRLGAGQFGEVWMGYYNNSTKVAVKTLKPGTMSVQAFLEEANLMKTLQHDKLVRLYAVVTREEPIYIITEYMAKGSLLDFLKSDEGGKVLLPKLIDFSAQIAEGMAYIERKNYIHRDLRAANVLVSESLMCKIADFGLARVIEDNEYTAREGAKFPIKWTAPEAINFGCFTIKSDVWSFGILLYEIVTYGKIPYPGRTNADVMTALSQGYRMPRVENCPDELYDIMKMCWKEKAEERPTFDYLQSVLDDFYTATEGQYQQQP
T6 sequence (P54756 25-1037): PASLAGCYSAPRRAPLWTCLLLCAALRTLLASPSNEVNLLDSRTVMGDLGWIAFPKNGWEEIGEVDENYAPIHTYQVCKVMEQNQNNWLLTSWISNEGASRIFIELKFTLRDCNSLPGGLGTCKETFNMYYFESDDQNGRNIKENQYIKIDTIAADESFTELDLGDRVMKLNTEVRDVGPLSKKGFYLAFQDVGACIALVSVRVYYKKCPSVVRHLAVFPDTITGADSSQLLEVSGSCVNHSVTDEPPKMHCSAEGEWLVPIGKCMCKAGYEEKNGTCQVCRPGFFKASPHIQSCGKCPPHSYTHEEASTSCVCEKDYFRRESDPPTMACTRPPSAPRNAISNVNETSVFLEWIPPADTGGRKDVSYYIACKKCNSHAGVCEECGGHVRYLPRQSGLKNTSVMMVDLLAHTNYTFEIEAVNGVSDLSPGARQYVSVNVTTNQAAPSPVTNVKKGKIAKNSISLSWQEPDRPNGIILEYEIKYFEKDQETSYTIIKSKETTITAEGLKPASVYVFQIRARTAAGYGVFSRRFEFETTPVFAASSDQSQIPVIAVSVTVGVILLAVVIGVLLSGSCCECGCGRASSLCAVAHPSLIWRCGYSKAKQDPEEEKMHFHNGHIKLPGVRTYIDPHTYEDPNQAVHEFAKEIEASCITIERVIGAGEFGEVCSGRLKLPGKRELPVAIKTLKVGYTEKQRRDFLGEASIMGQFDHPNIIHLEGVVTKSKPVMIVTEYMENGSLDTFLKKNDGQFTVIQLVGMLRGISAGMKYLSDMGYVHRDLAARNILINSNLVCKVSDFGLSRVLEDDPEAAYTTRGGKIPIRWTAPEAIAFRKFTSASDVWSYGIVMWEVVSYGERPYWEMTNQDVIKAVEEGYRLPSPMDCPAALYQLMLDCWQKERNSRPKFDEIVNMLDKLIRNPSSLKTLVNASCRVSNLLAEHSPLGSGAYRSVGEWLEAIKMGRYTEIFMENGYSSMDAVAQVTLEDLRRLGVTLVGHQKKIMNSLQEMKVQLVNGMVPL
T4 sequence (P06241 whole entry): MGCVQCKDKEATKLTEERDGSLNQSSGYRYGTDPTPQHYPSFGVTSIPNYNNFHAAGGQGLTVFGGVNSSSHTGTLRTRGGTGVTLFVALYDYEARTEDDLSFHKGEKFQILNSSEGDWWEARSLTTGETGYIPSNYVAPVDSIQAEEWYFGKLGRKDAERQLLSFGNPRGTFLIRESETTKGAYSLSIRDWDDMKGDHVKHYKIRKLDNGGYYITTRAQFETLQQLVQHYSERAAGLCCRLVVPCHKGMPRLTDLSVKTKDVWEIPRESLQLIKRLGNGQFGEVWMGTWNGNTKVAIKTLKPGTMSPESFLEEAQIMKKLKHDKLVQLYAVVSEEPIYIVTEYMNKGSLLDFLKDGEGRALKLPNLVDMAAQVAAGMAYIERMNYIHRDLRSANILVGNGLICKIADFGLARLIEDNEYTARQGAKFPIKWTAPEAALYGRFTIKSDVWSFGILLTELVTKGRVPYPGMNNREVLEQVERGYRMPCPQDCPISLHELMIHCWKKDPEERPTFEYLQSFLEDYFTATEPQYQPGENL

SMILES: COc1ccc(/C=C2\N=C(C)N(c3ccc(CC(=O)NCc4ccccc4)cc3)C2=O)cc1 [Compound 4c, (Z)-N-Benzyl-2-(4-(4-(4-methoxybenzylidene)-2-methyl-5-oxo-4,5-dihydro-1H-imidazol-1-yl)phenyl)acetamide]
- Mean Final score (Kinase score) [1]: 2.113
- Mean Kinase Statistic [1]: -1.091
- Mean Significance Score [1]: 2.048
- Mean Specificity Score [1]: 0.02997
- Mean Final score (Kinase score) [2]: 2.506
- Mean Kinase Statistic [2]: -1.237
- Mean Significance Score [2]: 2.048
- Mean Specificity Score [2]: 0.5313
- Mean Final score (Kinase score) [3]: 2.5
- Mean Kinase Statistic [3]: -1.184
- Mean Significance Score [3]: 2.048
- Mean Specificity Score [3]: 0.4367
- Mean Final score (Kinase score) [4]: 2.45
- Mean Kinase Statistic [4]: -1.236
- Mean Significance Score [4]: 2.048
- Mean Specificity Score [4]: 0.4193
- Mean Final score (Kinase score) [5]: 2.4437
- Mean Kinase Statistic [5]: -1.248
- Mean Significance Score [5]: 2.048
- Mean Specificity Score [5]: 0.3814
- Mean Final score (Kinase score) [6]: 2.0125
- Mean Kinase Statistic [6]: -1.181
- Mean Significance Score [6]: 1.675
- Mean Specificity Score [6]: 0.3238
- Mean Final score (Kinase score) [7]: 2.229
- Mean Kinase Statistic [7]: -1.195
- Mean Significance Score [7]: 1.851
- Mean Specificity Score [7]: 0.3437
- Mean Final score (Kinase score) [8]: 2.117
- Mean Kinase Statistic [8]: -0.9506
- Mean Significance Score [8]: 2.048
- Mean Specificity Score [8]: 0.02144
- Mean Significance Score [9]: 2.048
- Mean Specificity Score [9]: 1.177
- Mean Final score (Kinase score) ([9]; listed as KIM-161): 3.29 and 3.287
- Mean Final score (Kinase score) [10]: 2.535
- Mean Kinase Statistic [10]: -1.256
- Mean Significance Score [10]: 2.048
- Mean Specificity Score [10]: 0.5472

From publication PMC8766756, “Insights on Cancer Cell Inhibition, Subcellular Activities, and Kinase Profile of Phenylacetamides Pending 1H-Imidazol-5-One Variants” (Frontiers in Pharmacology, 2022)
